Our source for the IC50 values is US20130261130A1, “NEUROTRYPSIN INHIBITORS” (priority 2010, published 2013).

This assay deals with T1, human neurotrypsin (Homo sapiens, UniProt P56730).
T1 sequence (P56730 21-875): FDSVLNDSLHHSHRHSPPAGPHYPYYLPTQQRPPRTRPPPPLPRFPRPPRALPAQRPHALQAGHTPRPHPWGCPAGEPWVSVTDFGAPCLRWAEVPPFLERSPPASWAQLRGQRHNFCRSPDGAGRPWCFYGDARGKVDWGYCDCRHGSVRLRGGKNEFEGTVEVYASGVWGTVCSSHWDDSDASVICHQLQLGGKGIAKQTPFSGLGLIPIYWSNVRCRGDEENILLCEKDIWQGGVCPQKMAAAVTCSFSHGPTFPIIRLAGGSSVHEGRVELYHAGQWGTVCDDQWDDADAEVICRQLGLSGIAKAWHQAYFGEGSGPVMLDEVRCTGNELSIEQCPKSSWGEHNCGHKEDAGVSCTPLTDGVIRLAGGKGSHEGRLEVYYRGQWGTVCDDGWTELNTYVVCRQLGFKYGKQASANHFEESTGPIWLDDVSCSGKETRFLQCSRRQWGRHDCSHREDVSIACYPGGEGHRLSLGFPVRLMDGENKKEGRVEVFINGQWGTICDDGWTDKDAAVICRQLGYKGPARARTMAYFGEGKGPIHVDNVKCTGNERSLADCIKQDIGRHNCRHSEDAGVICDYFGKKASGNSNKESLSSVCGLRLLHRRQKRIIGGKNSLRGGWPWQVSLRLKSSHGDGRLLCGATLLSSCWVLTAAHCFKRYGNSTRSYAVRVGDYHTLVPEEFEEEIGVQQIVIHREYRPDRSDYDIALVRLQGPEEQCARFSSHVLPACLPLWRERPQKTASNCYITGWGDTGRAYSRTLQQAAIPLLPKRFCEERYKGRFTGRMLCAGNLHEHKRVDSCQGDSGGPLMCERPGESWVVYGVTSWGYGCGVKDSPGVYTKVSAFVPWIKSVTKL
As to the kind of experiment: Determination of IC50 for human neurotrypsin. The format is biochemical. The following applies: human neurotrypsin; method of WO 2006/1103261; read-out: Neurotrypsin IC50. The method, then: Assessment of the potency of compounds of examples 1-311 in inhibiting the enzymatic activity of human neurotrypsin was performed according to the method described in patent application WO 2006/1103261

Molecules are shown by their SMILES. pIC50: −log10 of the molar value.

Regarding `O=C(NCc1ccc(Cl)cc1)c1ccc(C(=O)O)c(NC(=O)c2sc3ccccc3c2Cl)c1` [Example 148, 2-(3-Chloro-benzo[b]-thiophene-2-carboxamido)-4-(4-chlorobenzylcarbamoyl)-benzoic acid], the pIC50 was 5.37.

Turning to `O=C(O)c1ccc(C(=O)Nc2ccc(Cc3ccccc3)cc2)c(NC(=O)c2sccc2Cl)c1` [Example 196, 4-(4-Benzylphenyl-carbamoyl)-3-(3-chloro-thiophene-2-carboxamido)-benzoic acid], the negative logarithm of the IC50 (pIC50) was 4.99. Under `O=C(Nc1ccc(C(=O)NC2CCCCC2)cc1C(=O)O)c1ccc(-c2nc3cc(Cl)c(Cl)cc3[nH]2)cc1` [Example 125] stands 5.46. Under `O=C(O)c1ccc(-c2cn(Cc3ccccc3)nn2)cc1NC(=O)c1sc2ccccc2c1Cl` [Example 258] stands 5.03; under `COc1ccc(-c2ccc(C(=O)O)c(NC(=O)c3sc4ccccc4c3Cl)c2)cc1` [Example 249], 5.55. Regarding `O=C(O)c1ccc(-c2ccccc2Cl)cc1NC(=O)c1sc2ccccc2c1Cl` [Example 250], the pIC50 was 5.62.

As to `O=C(NCc1ccc(-c2ccc(Cl)cc2)s1)c1ccc(C(=O)O)c(NC(=O)c2sc3ccccc3c2Cl)c1` [Example 91, 2-(3-Chlorobenzo[b]-thiophene-2-carboxamido)-4-((5-(4-chlorophenyl)thiophen-2-ylmethyl)carbamoyl)-benzoic acid], the negative-log IC50 (pIC50) was 5.00. Under `O=C(Nc1ccc(Cl)cc1)c1ccc(NC(=O)c2sc3ccccc3c2Cl)c(C(=O)O)c1` [Example 26, 2-(3-Chlorobenzo[b]-thiophene-2-carboxamido)-5-(4-chlorophenylcarbamoyl)-benzoic acid] stands 5.49. Turning to `O=C(Nc1ncc(Cl)s1)c1ccc(C(=O)O)c(NC(=O)c2ccc(-c3ccc(F)cc3)s2)c1` [Example 27, 4-(5-Chlorothiazol-2-yl-carbamoyl)-2-(5-(4-fluorophenyl)thiophene-2-carboxamido)benzoic acid], the pIC50 was 5.30. Consider `O=C(O)c1ccc(N2CC(c3ccc(Cl)cc3)CC2=O)cc1NC(=O)c1sc2ccccc2c1Cl` (stereo not shown) [Example 282], for which the pIC50 is 4.95. `O=C(O)c1ccc(-c2cn(-c3ccc(Cl)cc3)nn2)cc1NC(=O)c1sc2ccccc2c1Cl` [Example 257, 2-(3-Chlorobenzo[b]thiophene-2-carboxamido)-4-(1-(4-chlorophenyl)-1H-1,2,3-triazol-4-yl)benzoic acid]: the pIC50 is 5.42.

As for `O=C(O)c1cc(C(=O)N2CCC(c3c(Cl)cccc3Cl)CC2)ccc1NC(=O)c1sc2ccccc2c1Cl` [Example 35, 2-(3-Chlorobenzo[b]-thiophene-2-carboxamido)-5-(4-(2,6-dichlorophenyl)-piperidine-1-carbonyl)benzoic acid], the pIC50 is 5.49. Under `CCCCc1ccc(NC(=O)c2ccc(NC(=O)c3ccc(-c4nc5cc(Cl)c(Cl)cc5[nH]4)cc3)c(C(=O)O)c2)cc1` [Example 129] stands 6.00; under `O=C(O)c1cc(C(=O)N2CCC(Cc3ccccc3)CC2)ccc1NC(=O)c1sc2ccccc2c1Cl` [Example 157, 5-(4-Benzylpiperidine-1-carbonyl)-2-(3-chlorobenzo[b]thiophene-2-carboxamido)benzoic acid], 5.42. Then `CC(C)CN(C(=O)c1ccc(NC(=O)c2ccc(-c3nc4cc(Cl)c(Cl)cc4[nH]3)cc2)c(C(=O)O)c1)c1ccc(Cl)cc1` [Example 45, 5-(N-4-Chlorophenyl-N-isobutylcarbamoyl)-2-(4-(5,6-dichloro-1H-benzo[d]-imidazol-2-yl)benzamido)-benzoic acid], with 5.82. Then `O=C(O)c1ccc(N2CC(c3ccc(Cl)cc3)CCC2=O)cc1NC(=O)c1sc2ccccc2c1Cl` (stereo not shown) [Example 286], with 4.98; and `O=C(Nc1nccs1)c1ccc(C(=O)O)c(NC(=O)c2sc3ccccc3c2Cl)c1` [Example 52, 2-(3-Chlorobenzo[b]thiophene-2-carboxamido)-4-(thiazol-2-ylcarbamoyl)-benzoic acid], with 4.81; and `CC(C)CN(CC(C)C)C(=O)c1ccc(NC(=O)c2ccc(-c3nc4cc(Cl)c(Cl)cc4[nH]3)cc2)c(C(=O)O)c1` [Example 131], with 6.15. As for `COc1ccc(-c2ccc(C(=O)O)c(NC(=O)c3ccc(-c4nc5cc(Cl)c(Cl)cc5[nH]4)cc3)c2)cc1` [Example 266], the pIC50 is 5.43. Under `O=C(Nc1ccc(C(=O)N2CCC(Cc3ccc(F)cc3)CC2)cc1C(=O)O)c1ccc(-c2nc3cc(Cl)c(Cl)cc3[nH]2)cc1` [Example 141, 2-(4-(5,6-Dichloro-1H-benzo[d]imidazol-2-yl)benzamido)-5-(4-(4-fluorobenzyl)piperidine-1-carbonyl)benzoic acid] stands 5.72; under `O=C(O)c1ccc(C(=O)N2CCC(O)(c3ccc(Cl)cc3)CC2)cc1NC(=O)c1sc2ccccc2c1Cl` [Example 99], 5.16. Under `O=C(Nc1ccc(Cl)cc1)c1ccc(-c2nn[nH]n2)c(NC(=O)c2sc3ccccc3c2Cl)c1` [Example 229, 3-Chloro-benzo[b]thiophene-2-carboxylic acid [5-(4-chloro-phenyl-carbamoyl)-2-(2H-tetrazol-5-yl)phenyl]amide] stands 5.43. Under `CC(C)(C)c1ccc(NC(=O)c2ccc(C(=O)O)c(NC(=O)c3sc4ccccc4c3Cl)c2)cc1` [Example 69] stands 5.51; under `O=C(O)c1cc(NC(=O)c2sc3ccccc3c2Cl)ccc1C(=O)Nc1ccc(Cl)cc1` [Example 270, 5-(3-Chlorobenzo[b]thiophene-2-carboxamido)-2-(4-chlorophenyl-carbamoyl)benzoic acid], 4.64; under `O=C(Nc1ccc(Cl)cc1)c1ccc(C(=O)O)c(NC(=O)c2ccc(-c3ccccn3)s2)c1` [Example 144, 4-(4-Chlorophenyl-carbamoyl)-2-(5-(pyrid-2-yl)-thiophene-2-carboxamido)-benzoic acid], 4.66. For the molecule `O=C(NC1CCCc2ccccc21)c1ccc(C(=O)O)c(NC(=O)c2sc3ccccc3c2Cl)c1` (stereo not shown) [Example 32, 2-(3-Chlorobenzo[b]-thiophene-2-carboxamido)-4-(1,2,3,4-tetrahydro-naphthalen-1-ylcarbamoyl)-benzoic acid], the pIC50 is 4.87. Then `O=C(Nc1ccccc1O)c1ccc(C(=O)O)c(NC(=O)c2sc3ccccc3c2Cl)c1` [Example 82], with 4.75; and `O=C(O)c1ccc(C(=O)N2CCC(Oc3ccccc3)CC2)cc1NC(=O)c1sc2ccccc2c1Cl` [Example 28, 2-(3-Chlorobenzo[b]-thiophene-2-carboxamido)-4-(4-phenoxypiperidine-1-carbonyl)benzoic acid], with 4.95. Under `O=C(O)COc1cc(C(=O)O)c(NC(=O)c2ccc(-c3nc4cc(Cl)c(Cl)cc4n3CC(=O)O)cc2)cc1C(=O)Nc1ccc(Cl)cc1` [Example 302, 5-(Carboxymethoxy)-2-(4-(1-(carboxymethyl)-5,6-dichloro-1H-benzo[d]imidazol-2-yl)benzamido)-4-(4-chlorophenylcarbamoyl)benzoic acid] stands 5.36; under `O=C(O)c1cc(N2CC(c3ccc(Cl)cc3)CC2=O)ccc1NC(=O)c1sc2ccccc2c1Cl` (stereo not shown) [Example 287], 5.37; under `O=C(Nc1ccccc1F)c1ccc(NC(=O)c2[nH]c3ccc(Cl)cc3c2-c2ccccc2)c(C(=O)O)c1` [Example 139], 5.12.
